A word on the IC50: it is the concentration that gives 50% inhibition.

The values that follow come from patent publication US9675595B2, “Synergistic combinations of PI3K- and MEK-inhibitors” (Novartis AG, priority 2011, dated 2017).

Holding throughout (test): Cell viability (CellTiterGlo, 72 h), Example 1
What all share (assay type): cell-based
(In general: In ATP-based viability assays light output follows the ATP content of the culture.)

One assay concerns DLD-1. Conditions: Homo sapiens, single agent. The text has this:
(§1) The colorectal cancer cell lines SW1417, COLO 205, LS411N, HT-29, RKO, OUMS-23, SW620, LoVo, SW480, SW837, COLO-678, LS123-NCI—H747, HCT-15, HCT116, DLD-1, T84, SW948, LS180, GP2d, HuTu 80, CW-2, SW48, NCI—H716, C2Bbe1, SNU—C1 and KM12 are obtained from the American Type Culture Collection (ATCC) and maintained in their respective culture medium as specified by the provider. These colorectal cancer cell lines have the following mutation status:
(§2) For assessment of combination effects, cells are seeded into 384-well plates at 500 cells/well and incubated overnight. The contents of the compound master plates are pre-diluted with 1:200 (1 μL compound solution to 200 μL cell […] culture medium containing 10% fetal clf serum) before transferring 5 μL of this pre-dilution to the cell plates containing 20 μL cell culture medium, to achieve the targeted final compound concentrations as well as a vehicle (DMSO) concentration of 0.09%.
(§3) Effects of single agents as well as their checkerboard combinations on cell viability are assessed after 72 hours of incubation at 37° C./5% CO2 by quantification of cellular ATP levels (CellTiterGlo, Promega) using 25 μL reagent/well and n=2 repliate plates per condition. The number/viability of cells at the time of compound addition was likewise assessed and used to estimate the population doubling time of the particular cell line. Single agent IC50s are calculated using standard four-parametric curve fitting (SLFit, model 205). Potential synergistic interactions between compound combinations are assessed using the Excess Inhibition 2D matrix according to the Loewe additivity model and are reported as Synergy Score. In addition, compound combinations are assessed by combination index analysis derived from isobologram graphs at 50% inhibition, and are reported as best combination index (CI), which corresponds to the lowest value on the isobologram. All synergy calculations are performed using CHALICE software (Lehár et al, Nat Biotechnol. (July 2009), 27(4): […]).

In the next assay the test system is LS411N. Conditions: Homo sapiens, LS-411N, single agent.
Source text: as §1, §2, §3

The next assay concerns SW480. Conditions: Homo sapiens, single agent.
Source text: as §1, §2, §3

For the next assay, the system named is SW837. Conditions: Homo sapiens, single agent.
Source text: as §1, §2, §3

Another assay deals with RKO. The following applies: Homo sapiens, single agent.
Source text: as §1, §2, §3

The test system of another assay is HT-29. The following applies: Homo sapiens, HT-29, 72 h.
Source text: as §1, §2, §3

In the next assay the test system is SNU-C1. Conditions: Homo sapiens, single agent.
Source text: as §1, §2, §3

The test system of a further assay is SW948. Conditions: Homo sapiens, duplicate data points and dose response display some scatter, single agent.
Source text: as §1, §2, §3

Another assay relates to NCI-H716. The following applies: Homo sapiens, single agent.
Source text: as §1, §2, §3

The test system of another assay is HCT 116. Conditions: Homo sapiens, HCT-116, 72 h.
Source text: as §1, §2, §3

In the next assay the test system is GP2d. The following applies: single agent.
Source text: as §1, §2, §3

A further assay relates to C2BBe1. Conditions: Homo sapiens, single agent.
Source text: as §1, §2, §3

A further assay concerns SW1417. Conditions: Homo sapiens, single agent.
Source text: as §1, §2, §3

A further assay relates to SW620. Conditions: Homo sapiens, SW-620, single agent.
Source text: as §1, §2, §3

The next assay relates to OUMS-23. The following applies: single agent.
Source text: as §1, §2, §3

The subject of the next assay is SW48. The following applies: Homo sapiens, single agent.
Source text: as §1, §2, §3

A further assay deals with COLO-678. Conditions: Homo sapiens, single agent.
Source text: as §1, §2, §3

A further assay deals with LoVo. The following applies: Homo sapiens, single agent.
Source text: as §1, §2, §3

A further assay relates to CW-2. The following applies: Homo sapiens, single agent.
Source text: as §1, §2, §3

The subject of another assay is HCT-15. Conditions: Homo sapiens, single agent.
Source text: as §1, §2, §3

Structures are written as SMILES. Read-outs that look alike come from different tables or passages of the source.

Take `Cn1cnc2c(F)c(Nc3ccc(Br)cc3F)c(C(=O)NOCCO)cc21` [COMPOUND B, 6-(4-bromo-2-fluorophenylamino)-7-fluoro-3-methyl-3H-benzoimidazole-5-carboxylic acid (2-hydroxyethoxy)-amide]: the IC50 with DLD-1 (read-out: Cmpd. B IC50) was more than 2700 nM; with LS411N (read-out: Cmpd. B IC50), 54.7 nM; in the assay on SW480 (read-out: Cmpd. B IC50), 2030 nM; in the assay with SW837 (read-out: Cmpd. B IC50), 557 nM; in the assay on RKO (read-out: Cmpd. B IC50), more than 2700 nM; with HT-29 (HT-29*, repeat experiment performed at end of study, single agent, read-out: Cmpd. B IC50), 66.5 nM. The IC50 is 84 nM with HT-29 (HT-29, single agent, read-out: Cmpd. B IC50); 15.1 nM in the assay on SNU-C1 (read-out: Cmpd. B IC50); 89.8 nM in the assay on SW948 (read-out: Cmpd. B IC50); more than 2700 nM in the assay on NCI-H716 (read-out: Cmpd. B IC50); 735 nM in the assay with HCT 116 (HCT 116*, repeat experiment performed at end of study, single agent, read-out: Cmpd. B IC50); 881 nM with HCT 116 (HCT 116, single agent, read-out: Cmpd. B IC50). The IC50 with GP2d (read-out: Cmpd. B IC50) is 756 nM; in the assay on C2BBe1 (read-out: Cmpd. B IC50), 1580 nM; in the assay on SW1417 (read-out: Cmpd. B IC50) it was 53.9 nM; with SW620 (read-out: Cmpd. B IC50), 26.9 nM; with OUMS-23 (read-out: Cmpd. B IC50) it was more than 2700 nM; in the assay with SW48 (read-out: Cmpd. B IC50), 78.4 nM. The IC50 in the assay with COLO-678 (read-out: Cmpd. B IC50) is 1710 nM; in the assay with LoVo (read-out: Cmpd. B IC50), 148 nM; in the assay on CW-2 (read-out: Cmpd. B IC50), more than 2700 nM; in the assay on HCT-15 (read-out: Cmpd. B IC50), more than 2700 nM.

For the compound `Cc1nc(NC(=O)N2CCC[C@H]2C(N)=O)sc1-c1ccnc(C(C)(C)C(F)(F)F)c1` [COMPOUND A, (S)-pyrrolidine-1,2-dicarboxylic acid 2-amide 1-({4-methyl-5-[2-(2,2,2-trifluoro-1,1-dimethyl-ethyl)-pyridin-4-yl]-thiazol-2-yl}-amide)], the IC50 in the assay with DLD-1 (read-out: Cmpd. A IC50) is more than 10800 nM; in the assay on LS411N (read-out: Cmpd. A IC50), 8670 nM; in the assay with SW480 (read-out: Cmpd. A IC50), 9350 nM; in the assay on SW837 (read-out: Cmpd. A IC50), 7280 nM; with RKO (read-out: Cmpd. A IC50), 6730 nM; with HT-29 (HT-29*, repeat experiment performed at end of study, single agent, read-out: Cmpd. A IC50) it was 4280 nM. In addition, the IC50 in the assay on HT-29 (HT-29, single agent, read-out: Cmpd. A IC50) is 5200 nM; in the assay with SNU-C1 (read-out: Cmpd. A IC50) it was 2430 nM; in the assay on SW948 (read-out: Cmpd. A IC50), 1190 nM; in the assay with NCI-H716 (read-out: Cmpd. A IC50), more than 10800 nM; in the assay with HCT 116 (HCT 116*, repeat experiment performed at end of study, single agent, read-out: Cmpd. A IC50), 8320 nM; with HCT 116 (HCT 116, single agent, read-out: Cmpd. A IC50), 9420 nM. The IC50 in the assay with GP2d (read-out: Cmpd. A IC50) was 698 nM; in the assay on C2BBe1 (read-out: Cmpd. A IC50), 9200 nM; in the assay with SW1417 (read-out: Cmpd. A IC50), 7850 nM; in the assay with SW620 (read-out: Cmpd. A IC50), more than 10800 nM; in the assay on OUMS-23 (read-out: Cmpd. A IC50), more than 10800 nM; in the assay with SW48 (read-out: Cmpd. A IC50) it was 1410 nM. For the same compound, the IC50 was more than 10800 nM in the assay on COLO-678 (read-out: Cmpd. A IC50), 8660 nM in the assay with LoVo (read-out: Cmpd. A IC50), more than 10800 nM in the assay on CW-2 (read-out: Cmpd. A IC50) and 6720 nM with HCT-15 (read-out: Cmpd. A IC50).
